Legend:
[1] = test system: pancreatin (Panzytrat 40,000)
Protocol: Both media are from the company Biorelevant®, Ltd. in Great Britain. In addition, in some experiments porcine pancreas is added (Panzytrat® 40,000, Fa. Allergan).
The pancreatin is used in the form of the commercially available product Panzytrat® 40,000 from the Allergan company. The whole mixture is stirred on a hot plate at 50° C.; the course of the reaction is determined and monitored by continuously recording the acid number over time.

[2] = even if several grams are taken; cited from earlier work

| Compound | cleavage by pancreatin [1] | duration of ketosis [2] |
| --- | --- | --- |
| 3-oxobutyric acid tri-diglycerol ester | cleaved |  |
| 3-oxobutyric acid di-diglycerol ester | cleaved |  |
| CC(O)CC(=O)O (stereo not shown) [3-hydroxybutyric acid] |  | three to four |
| 3-oxobutyric acid mono-diglycerol ester | cleaved |  |

— patent US12577190B2, “Method for producing polyol-based esters of ketocarboxylic acids” (KetoLipix Therapeutics GmbH, priority 2019, dated 2026)
